Measurements taken from patent publication US9302999B2, “Substituted triazoles as herbicides” (E. I. DU PONT DE NEMOURS AND COMPANY, priority 2012, dated 2016).

Columns and labels:
Assay type in all cases: in vivo
[1] = system: pigweed (Amaranthus retroflexus); test: Test A pre-/postemergence: pigweed
Procedure, shortened: (§1)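 Each species received preemergence soil-directed spraying and, at the same time, postemergence treatment of seedlings 2–10 cm tall. Formulation: non-phytotoxic solvent mixture including surfactant. Response assessed visually about ten days on, relative to untreated controls, 0–100 scale.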

[2] = system: barnyardgrass (Echinochloa crus-galli); test: Test A pre-/postemergence: barnyardgrass
Procedure, shortened: as §1

[3] = system: ducksalad (Heteranthera limosa); test: Test B flooded paddy: ducksalad; details: Flood, applied to paddy water at 2-leaf stage, visually evaluated after 13 to 15 days
Procedure, shortened: (§2)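 Visual ratings (0 = no effect, 100 = complete control) versus untreated controls were taken 13–15 days after treatment of greenhouse plants. Treatment was added to paddy water held at 3 cm depth on 2-leaf-stage seedlings.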

[4] = system: wheat (Triticum aestivum); test: Test A pre-/postemergence: wheat
Procedure, shortened: as §1

[5] = system: velvetleaf (Abutilon theophrasti); test: Test A pre-/postemergence: velvetleaf
Procedure, shortened: as §1

[6] = system: barnyardgrass (Echinochloa crus-galli); test: Test B flooded paddy: barnyardgrass; details: Flood, applied to paddy water at 2-leaf stage, visually evaluated after 13 to 15 days
Procedure, shortened: as §2

[7] = system: sedge, umbrella (small-flower umbrella sedge Cyperus difformis); test: Test B flooded paddy: sedge, umbrella; details: Flood, applied to paddy water at 2-leaf stage, visually evaluated after 13 to 15 days
Procedure, shortened: as §2

[8] = system: corn (Zea mays); test: Test A pre-/postemergence: corn
Procedure, shortened: as §1

[9] = system: foxtail, giant (giant foxtail, Setaria faberii); test: Test A pre-/postemergence: foxtail, giant
Procedure, shortened: as §1

[10] = system: crabgrass, large (large crabgrass, Digitaria sanguinalis); test: Test A pre-/postemergence: crabgrass, large
Procedure, shortened: as §1

[11] = system: morningglory (Ipomoea spp.); test: Test A pre-/postemergence: morningglory
Procedure, shortened: as §1

[12] = system: rice (Oryza sativa); test: Test B flooded paddy: rice; details: Flood, applied to paddy water at 2-leaf stage, visually evaluated after 13 to 15 days
Procedure, shortened: as §2

[13] = Postemergence, 125 g ai/ha, 0 to 100 scale, 0 is no effect, 100 is complete control
[14] = Postemergence, 500 g ai/ha, 0 to 100 scale, 0 is no effect, 100 is complete control
[15] = Preemergence, 125 g ai/ha, 0 to 100 scale where 0 is no effect and 100 is complete control
[16] = Preemergence, 500 g ai/ha, 0 to 100 scale (0 no effect, 100 complete control)

In the case of `CC(=O)Oc1nn(-c2ccc(C(F)(F)F)cc2)nc1Cc1ccnc(C(F)(F)F)c1` [Compound 197], the “Plant response rating, Pigweed” value [1, 13] is reported as 30, the “Pigweed plant response rating” value [1, 14] is reported as 70 and the “Plant response rating, Pigweed” value [1, 15] is reported as 0. The “Plant response rating, Pigweed” value [1, 16] was 0, the “Plant response rating, Barnyardgrass” value [2, 13] was 0 and the “Barnyardgrass plant response rating” value [2, 14] was 10. The “Plant response rating, Barnyardgrass” value [2, 15] was 0, the “Plant response rating, Barnyardgrass” value [2, 16] was 0 and the “Plant response rating, Ducksalad (0 to 100 scale, 0 is no effect, 100 is complete control)” value ([3]; 250 g ai/ha) was 0. The “Plant response rating, Wheat” value [4, 13] was 0, the “Wheat plant response rating” value [4, 14] was 0 and the “Plant response rating, Wheat” value [4, 15] was 0. For the same molecule, the “Plant response rating, Wheat” value [4, 16] was 0, the “Plant response rating, Velvetleaf” value [5, 13] was 20 and the “Velvetleaf plant response rating” value [5, 14] was 30. The “Plant response rating, Velvetleaf” value [5, 15] was 0, the “Plant response rating, Velvetleaf” value [5, 16] was 0 and the “Plant response rating, Barnyardgrass (0 to 100 scale, 0 is no effect, 100 is complete control)” value ([6]; 250 g ai/ha) was 0. For the same molecule, the “Plant response rating, Sedge, Umbrella (0 to 100 scale, 0 is no effect, 100 is complete control)” value ([7]; 250 g ai/ha) was 0, the “Plant response rating, Corn” value [8, 13] was 0 and the “Corn plant response rating” value [8, 14] was 20. For the same molecule, the “Plant response rating, Corn” value [8, 15] was 0, the “Plant response rating, Corn” value [8, 16] was 0 and the “Plant response rating, Foxtail, Giant” value [9, 13] was 10. The “Foxtail, Giant plant response rating” value [9, 14] was 40, the “Plant response rating, Foxtail, Giant” value [9, 15] was 0 and the “Plant response rating, Foxtail, Giant” value [9, 16] was 0. The “Plant response rating, Crabgrass, Large” value [10, 13] was 10, the “Crabgrass, Large plant response rating” value [10, 14] was 20 and the “Plant response rating, Crabgrass, Large” value [10, 15] was 0. The “Plant response rating, Crabgrass, Large” value [10, 16] was 0, the “Plant response rating, Morningglory” value [11, 13] was 30 and the “Morningglory plant response rating” value [11, 14] was 40. The “Plant response rating, Morningglory” value [11, 15] was 0, the “Plant response rating, Morningglory” value [11, 16] was 0 and the “Plant response rating, Rice (0 to 100 scale, 0 is no effect, 100 is complete control)” value ([12]; 250 g ai/ha) was 0.
For `Oc1nn(-c2ccc(C(F)(F)F)cc2)nc1Cc1ccnc(C(F)(F)F)c1` [Compound 198], the “Plant response rating, Pigweed” value [1, 13] was 10, the “Pigweed plant response rating” value [1, 14] was 50 and the “Plant response rating, Pigweed” value [1, 15] was 0. The “Plant response rating, Pigweed” value [1, 16] was 0, the “Plant response rating, Barnyardgrass” value [2, 13] was 0 and the “Barnyardgrass plant response rating” value [2, 14] was 0. For the same molecule, the “Plant response rating, Barnyardgrass” value [2, 15] was 0, the “Plant response rating, Barnyardgrass” value [2, 16] was 0 and the “Plant response rating, Ducksalad (0 to 100 scale, 0 is no effect, 100 is complete control)” value ([3]; 250 g ai/ha) was 0. The “Plant response rating, Wheat” value [4, 13] was 0, the “Wheat plant response rating” value [4, 14] was 0 and the “Plant response rating, Wheat” value [4, 15] was 0. The “Plant response rating, Wheat” value [4, 16] was 0, the “Plant response rating, Velvetleaf” value [5, 13] was 10 and the “Velvetleaf plant response rating” value [5, 14] was 10. For the same molecule, the “Plant response rating, Velvetleaf” value [5, 15] was 0, the “Plant response rating, Velvetleaf” value [5, 16] was 0 and the “Plant response rating, Barnyardgrass (0 to 100 scale, 0 is no effect, 100 is complete control)” value ([6]; 250 g ai/ha) was 0. For the same molecule, the “Plant response rating, Sedge, Umbrella (0 to 100 scale, 0 is no effect, 100 is complete control)” value ([7]; 250 g ai/ha) was 0, the “Plant response rating, Corn” value [8, 13] was 0 and the “Corn plant response rating” value [8, 14] was 10. For the same molecule, the “Plant response rating, Corn” value [8, 15] was 0, the “Plant response rating, Corn” value [8, 16] was 0 and the “Plant response rating, Foxtail, Giant” value [9, 13] was 0. The “Foxtail, Giant plant response rating” value [9, 14] was 10, the “Plant response rating, Foxtail, Giant” value [9, 15] was 0 and the “Plant response rating, Foxtail, Giant” value [9, 16] was 0. For the same molecule, the “Plant response rating, Crabgrass, Large” value [10, 13] was 0, the “Crabgrass, Large plant response rating” value [10, 14] was 10 and the “Plant response rating, Crabgrass, Large” value [10, 15] was 0. The “Plant response rating, Crabgrass, Large” value [10, 16] was 0, the “Plant response rating, Morningglory” value [11, 13] was 10 and the “Morningglory plant response rating” value [11, 14] was 20. The “Plant response rating, Morningglory” value [11, 15] was 0, the “Plant response rating, Morningglory” value [11, 16] was 0 and the “Plant response rating, Rice (0 to 100 scale, 0 is no effect, 100 is complete control)” value ([12]; 250 g ai/ha) was 0.
`FC(F)(F)c1cccc(-n2nc(Oc3ccnc(C(F)(F)F)c3)c(C3CC3)n2)c1` [Compound 199] was tested, and the “Plant response rating, Pigweed” value [1, 13] was 20, the “Pigweed plant response rating” value [1, 14] was 60 and the “Plant response rating, Pigweed” value [1, 15] was 10. The “Plant response rating, Pigweed” value [1, 16] was 30, the “Plant response rating, Barnyardgrass” value [2, 13] was 10 and the “Barnyardgrass plant response rating” value [2, 14] was 10. For the same molecule, the “Plant response rating, Barnyardgrass” value [2, 15] was 0, the “Plant response rating, Barnyardgrass” value [2, 16] was 0 and the “Plant response rating, Ducksalad (0 to 100 scale, 0 is no effect, 100 is complete control)” value ([3]; 125 g ai/ha) was 0. For the same molecule, the “Plant response rating, Wheat” value [4, 13] was 0, the “Wheat plant response rating” value [4, 14] was 0 and the “Plant response rating, Wheat” value [4, 15] was 0. The “Plant response rating, Wheat” value [4, 16] was 0, the “Plant response rating, Velvetleaf” value [5, 13] was 10 and the “Velvetleaf plant response rating” value [5, 14] was 10. The “Plant response rating, Velvetleaf” value [5, 15] was 0, the “Plant response rating, Velvetleaf” value [5, 16] was 0 and the “Plant response rating, Barnyardgrass (0 to 100 scale, 0 is no effect, 100 is complete control)” value ([6]; 125 g ai/ha) was 0. The “Plant response rating, Sedge, Umbrella (0 to 100 scale, 0 is no effect, 100 is complete control)” value ([7]; 125 g ai/ha) was 0, the “Plant response rating, Corn” value [8, 13] was 10 and the “Corn plant response rating” value [8, 14] was 20. For the same molecule, the “Plant response rating, Corn” value [8, 15] was 0, the “Plant response rating, Corn” value [8, 16] was 0 and the “Plant response rating, Foxtail, Giant” value [9, 13] was 10. The “Foxtail, Giant plant response rating” value [9, 14] was 20, the “Plant response rating, Foxtail, Giant” value [9, 15] was 0 and the “Plant response rating, Foxtail, Giant” value [9, 16] was 50. The “Plant response rating, Crabgrass, Large” value [10, 13] was 10, the “Crabgrass, Large plant response rating” value [10, 14] was 20 and the “Plant response rating, Crabgrass, Large” value [10, 15] was 20. The “Plant response rating, Crabgrass, Large” value [10, 16] was 70, the “Plant response rating, Morningglory” value [11, 13] was 10 and the “Morningglory plant response rating” value [11, 14] was 20. The “Plant response rating, Morningglory” value [11, 15] was 0, the “Plant response rating, Morningglory” value [11, 16] was 0 and the “Plant response rating, Rice (0 to 100 scale, 0 is no effect, 100 is complete control)” value ([12]; 125 g ai/ha) was 0.
For `FC(F)(F)c1cccc(-n2nc(Oc3ccnc(C(F)(F)F)c3)c(C3CC3)n2)c1` [Compound 200], the “Plant response rating, Pigweed” value [1, 13] was 50, the “Pigweed plant response rating” value [1, 14] was 100 and the “Plant response rating, Pigweed” value [1, 15] was 50. The “Plant response rating, Pigweed” value [1, 16] was 100, the “Plant response rating, Barnyardgrass” value [2, 13] was 0 and the “Barnyardgrass plant response rating” value [2, 14] was 10. For the same molecule, the “Plant response rating, Barnyardgrass” value [2, 15] was 0, the “Plant response rating, Barnyardgrass” value [2, 16] was 0 and the “Plant response rating, Ducksalad (0 to 100 scale, 0 is no effect, 100 is complete control)” value ([3]; 125 g ai/ha) was 0. For the same molecule, the “Plant response rating, Wheat” value [4, 13] was 0, the “Wheat plant response rating” value [4, 14] was 0 and the “Plant response rating, Wheat” value [4, 15] was 0. For the same molecule, the “Plant response rating, Wheat” value [4, 16] was 0, the “Plant response rating, Velvetleaf” value [5, 13] was 10 and the “Velvetleaf plant response rating” value [5, 14] was 40. For the same molecule, the “Plant response rating, Velvetleaf” value [5, 15] was 0, the “Plant response rating, Velvetleaf” value [5, 16] was 0 and the “Plant response rating, Barnyardgrass (0 to 100 scale, 0 is no effect, 100 is complete control)” value ([6]; 125 g ai/ha) was 0. For the same molecule, the “Plant response rating, Sedge, Umbrella (0 to 100 scale, 0 is no effect, 100 is complete control)” value ([7]; 125 g ai/ha) was 0, the “Plant response rating, Corn” value [8, 13] was 10 and the “Corn plant response rating” value [8, 14] was 20. The “Plant response rating, Corn” value [8, 15] was 0, the “Plant response rating, Corn” value [8, 16] was 0 and the “Plant response rating, Foxtail, Giant” value [9, 13] was 10. The “Foxtail, Giant plant response rating” value [9, 14] was 20, the “Plant response rating, Foxtail, Giant” value [9, 15] was 70 and the “Plant response rating, Foxtail, Giant” value [9, 16] was 100. The “Plant response rating, Crabgrass, Large” value [10, 13] was 10, the “Crabgrass, Large plant response rating” value [10, 14] was 40 and the “Plant response rating, Crabgrass, Large” value [10, 15] was 80. For the same molecule, the “Plant response rating, Crabgrass, Large” value [10, 16] was 100, the “Plant response rating, Morningglory” value [11, 13] was 10 and the “Morningglory plant response rating” value [11, 14] was 30. For the same molecule, the “Plant response rating, Morningglory” value [11, 15] was 0, the “Plant response rating, Morningglory” value [11, 16] was 10 and the “Plant response rating, Rice (0 to 100 scale, 0 is no effect, 100 is complete control)” value ([12]; 125 g ai/ha) was 0.
